Data set [1] in a line: physchem. Particulars: FaSSIF.
The nature of data set [2]: Kinetic solubility of the compound. As to conditions: read-out: Kinetic_solubility. The data set is classed as physicochemical.
Data set [3] is described as follows: Intrinsic clearance in mouse microsomes. In kind it is ADME, Microsome.
Data set [4] in a line: AUC(0 to 6 hrs) in rat at 10 mg/kg, po. In kind it is ADME, organism-based. Also noted: time < 6 hr, route oral, dose 10 mg/kg. Particulars: in vivo.
Data set [5] in a line: Oral bioavailability in rat at 10 mg/kg. In kind it is ADME, organism-based. Particulars: in vivo.
Data set [6] is described as follows: Cmax in rat at 10 mg/kg, po. The data set is classed as ADME, organism-based. Also noted: route oral, dose 10 mg/kg. Particulars: in vivo.
Data set [7] can be described thus: Stability of the compound in mouse plasma assessed as parent compound remaining after 4 hrs. In kind it is ADME, cell-free. As to conditions: read-out: Stabilty.
Data set [8] is described as follows: Intrinsic clearance in rat microsomes. In kind it is ADME, Microsome.
A short description of data set [9]: Stability of the compound in human plasma assessed as parent compound remaining after 4 hrs. In kind it is ADME, cell-free. Particulars: read-out: Stabilty.
Data set [10] can be described thus: Volume of distribution at steady state in rat at 0.2 mg/kg, iv. Particulars: in vivo, read-out: Vdss. In kind it is ADME, organism-based.
Data set [11] is described as follows: Clearance in rat at 0.2 mg/kg, iv. Particulars: in vivo. In kind it is ADME, organism-based.
Data set [12] in a line: AUC(0 to 4 hrs) in rat at 0.2 mg/kg, iv. The data set is classed as ADME, organism-based. Also noted: time < 4 hr, route intravenous, dose 0.2 mg/kg. As to conditions: in vivo.
Data set [13] can be described thus: Intrinsic clearance in human microsomes. The data set is classed as ADME, Microsome.
Data set [14] can be described thus: Half life in rat at 10 mg/kg, po. The data set is classed as ADME, organism-based. Particulars: in vivo.

In brackets after ≈: the same amount, converted by molar mass. A value given as a limit tells only on which side of the number the result lay.

For the compound `CN1CCN(c2ccc(Nc3cc(-c4cccc(-n5ccc6cc(C7CC7)cc(F)c6c5=O)c4CO)cn(C)c3=O)nc2)CC1`, the concentration in solution in data set [1] (solubility) was 31 µg/mL (≈ 51.1 µM).

Regarding `Cn1cc(-c2nc3c(-c4ccc(CNC(=O)c5nc(C(C)(C)C)no5)c(F)c4)ccnc3[nH]2)cn1`, the solubility kinetic in data set [2] worked out at 1.7 µM (≈ 0.807 µg/mL). Besides, in data set [1], the solubility (in general, the dissolved amount per volume that the medium holds) was 2 µg/mL (≈ 4.21 µM).

`Cn1cc(-c2nc3c(-c4ccc(C5(NC(=O)c6nc(C(C)(C)C)no6)CC5)cc4)ccnc3[nH]2)cn1`: the solubility in data set [1] worked out at 56 µg/mL (≈ 116 µM).

Regarding `Cc1c(-c2nc3c(-c4ccc5c(c4)CCC[C@@H]5NC(=O)c4nc(C(C)(C)C)no4)ccnc3[nH]2)cnn1C(C)C`, the concentration in solution in [1] (solubility) came to 28 µg/mL (≈ 52 µM).

`Cc1nn(C(C)C)c(C)c1-c1nc2c(-c3ccc4c(c3)CCC[C@H]4NC(=O)c3nc(C(C)(C)C)no3)ccnc2[nH]1` yielded a solubility in data set [1] of 56 µg/mL (≈ 101 µM).

On to `CC(C)n1cc(-c2nc3c(-c4ccc5c(c4)CCC[C@@H]5NC(=O)c4nc(C(C)(C)C)no4)ccnc3[nH]2)cn1`, for which the concentration in solution in [1] (solubility) came to 25 µg/mL (≈ 47.7 µM).

As for `Cn1cc(-c2nc3c(-c4ccc5c(c4)CCC[C@@H]5NC(=O)c4nc(C(C)(C)C)no4)ccnc3[nH]2)cn1`, the concentration in solution in data set [1] (solubility) came to 190 µg/mL (≈ 383 µM).

`Cc1nn(C2CCOCC2)cc1-c1nc2c(-c3ccc4c(c3)CCC[C@@H]4NC(=O)c3nc(C(C)(C)C)no3)ccnc2[nH]1` showed a solubility in [1] of 33 µg/mL (≈ 56.8 µM).

On to `Cc1c(-c2nc3c(-c4ccc5c(c4)CCC[C@H]5NC(=O)c4nc(C(C)(C)C)no4)ccnc3[nH]2)cnn1C1CCOCC1`, for which the solubility in [1] amounted to 7 µg/mL (≈ 12.1 µM).

Consider `Cc1nn(C(C)C)c(C)c1-c1nc2nccc(-c3ccc4c(c3)CCCC[C@H]4NC(=O)c3nc(C(C)(C)C)no3)c2[nH]1`, for which the values for the microsomal CLint in data set [3], in [8] and in [13] were 75 µL/min/mg, 67 µL/min/mg and 32 µL/min/mg, respectively. Also, the values for the AUC in data set [4] and in data set [12] were 3030 ng·h/mL and 79 ng·h/mL, respectively. In addition, the bioavailability – broadly, dose-corrected exposure relative to a reference, in per cent – in data set [5] worked out at 77%. The peak level in data set [6] (Cmax) was 849 ng/mL. For the same compound, the remaining at 4 h in data set [7] and in [9] was over 85% throughout. Besides, the Vd in data set [10] was determined as 2.62 L/kg. In data set [11], this compound came in with a CL of 2.42 L/kg/h. Moreover, in data set [14], the half-life (usually the time in which the quantity being followed falls by half) is 116 min.

These data come from ChEMBL document CHEMBL4819115, “Discovery of potent and selective reversible Bruton's tyrosine kinase inhibitors” (Bioorg Med Chem, 2021).
